In ChEMBL document CHEMBL1129330, “Synthesis and pharmacological characterization of all sixteen stereoisomers of 2-(2'-carboxy-3'-phenylcyclopropyl)glycine. Focus on (2S,1'S,2'S,3'R)-2-(2'-carboxy-3'-phenylcyclopropyl)glycine, a novel and selective group II metabotropic glutamate receptors antagonist” (J Med Chem, 1996):

Columns and labels:
[1] = Inhibitory concentration towards calcium/chloride-dependent glutamate transport into synaptosomes; type: functional, subcellular, Rattus norvegicus, Brain
[2] = target: Glutamate receptor ionotropic, kainate; experiment: Binding affinity towards Ionotropic glutamate receptor kainate; type: protein-complex assay
[3] = target: Glutamate receptor ionotropic, AMPA (Rattus norvegicus, UniProt P19490+P19491+P19492+P19493); experiment: Binding affinity towards Ionotropic glutamate receptor AMPA; type: protein-complex assay
[4] = Inhibitory concentration towards the sodium dependent glutamate transport into synaptosomes.; type: functional, subcellular, Brain
[5] = target: T1, Metabotropic glutamate receptor 2 (Homo sapiens, UniProt Q14416); experiment: Effective concentration forskolin-stimulated cAMP formation in BHK cells expressing mGluR2 receptor; type: functional, cell-based
T1 sequence (Q14416 whole entry): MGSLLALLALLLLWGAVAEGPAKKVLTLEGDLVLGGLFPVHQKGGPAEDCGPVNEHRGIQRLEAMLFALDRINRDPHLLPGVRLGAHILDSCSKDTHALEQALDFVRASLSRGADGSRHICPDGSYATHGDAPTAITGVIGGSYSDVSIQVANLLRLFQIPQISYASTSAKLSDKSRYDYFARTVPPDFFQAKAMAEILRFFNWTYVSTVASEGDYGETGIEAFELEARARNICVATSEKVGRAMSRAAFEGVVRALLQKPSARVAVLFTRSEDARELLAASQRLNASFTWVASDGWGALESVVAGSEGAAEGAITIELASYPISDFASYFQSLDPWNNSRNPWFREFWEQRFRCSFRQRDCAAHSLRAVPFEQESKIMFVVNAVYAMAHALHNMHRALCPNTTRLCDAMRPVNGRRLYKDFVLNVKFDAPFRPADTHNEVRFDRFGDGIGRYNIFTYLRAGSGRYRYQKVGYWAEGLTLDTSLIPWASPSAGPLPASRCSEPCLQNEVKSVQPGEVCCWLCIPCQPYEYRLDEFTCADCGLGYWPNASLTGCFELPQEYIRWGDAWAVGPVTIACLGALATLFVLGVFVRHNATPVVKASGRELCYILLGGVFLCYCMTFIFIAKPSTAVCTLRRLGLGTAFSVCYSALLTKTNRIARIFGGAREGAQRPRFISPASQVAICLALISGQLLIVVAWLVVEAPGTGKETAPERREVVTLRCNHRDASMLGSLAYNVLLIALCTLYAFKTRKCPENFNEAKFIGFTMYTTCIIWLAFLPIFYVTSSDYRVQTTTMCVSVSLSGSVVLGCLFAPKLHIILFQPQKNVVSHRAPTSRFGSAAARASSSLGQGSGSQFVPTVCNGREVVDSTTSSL

Glutamate NMDA receptor = experiment: Binding affinity towards Ionotropic glutamate receptor NMDA; type: protein-complex assay
[6] = target: T1, Metabotropic glutamate receptor 2; experiment: Concentration required for the half-maximal inhibition of cAMP […] in BHK cells expressing mGluR2; type: functional, cell-based
[7] = target: T1, Metabotropic glutamate receptor 2; experiment: Concentration required for the half-maximal inhibition of cAMP formation in BHK cells expressing mGluR2; type: functional, cell-based
[8] = target: T1, Metabotropic glutamate receptor 2; experiment: Effective concentration of compound against forskolin-stimulated cAMP formation in BHK cells expressing mGluR2 receptor; type: functional, cell-based
[9] = target: T1, Metabotropic glutamate receptor 2; experiment: Concentration required for the half-maximal inhibition of cAMP formation in BHK cells expressing mGluR2.; type: functional, cell-based
[10] = target: Metabotropic glutamate receptor 1 (Homo sapiens, UniProt Q13255); experiment: Binding affinity towards mGluR1a was determined
Chain of Metabotropic glutamate receptor 1 (Q13255 whole entry): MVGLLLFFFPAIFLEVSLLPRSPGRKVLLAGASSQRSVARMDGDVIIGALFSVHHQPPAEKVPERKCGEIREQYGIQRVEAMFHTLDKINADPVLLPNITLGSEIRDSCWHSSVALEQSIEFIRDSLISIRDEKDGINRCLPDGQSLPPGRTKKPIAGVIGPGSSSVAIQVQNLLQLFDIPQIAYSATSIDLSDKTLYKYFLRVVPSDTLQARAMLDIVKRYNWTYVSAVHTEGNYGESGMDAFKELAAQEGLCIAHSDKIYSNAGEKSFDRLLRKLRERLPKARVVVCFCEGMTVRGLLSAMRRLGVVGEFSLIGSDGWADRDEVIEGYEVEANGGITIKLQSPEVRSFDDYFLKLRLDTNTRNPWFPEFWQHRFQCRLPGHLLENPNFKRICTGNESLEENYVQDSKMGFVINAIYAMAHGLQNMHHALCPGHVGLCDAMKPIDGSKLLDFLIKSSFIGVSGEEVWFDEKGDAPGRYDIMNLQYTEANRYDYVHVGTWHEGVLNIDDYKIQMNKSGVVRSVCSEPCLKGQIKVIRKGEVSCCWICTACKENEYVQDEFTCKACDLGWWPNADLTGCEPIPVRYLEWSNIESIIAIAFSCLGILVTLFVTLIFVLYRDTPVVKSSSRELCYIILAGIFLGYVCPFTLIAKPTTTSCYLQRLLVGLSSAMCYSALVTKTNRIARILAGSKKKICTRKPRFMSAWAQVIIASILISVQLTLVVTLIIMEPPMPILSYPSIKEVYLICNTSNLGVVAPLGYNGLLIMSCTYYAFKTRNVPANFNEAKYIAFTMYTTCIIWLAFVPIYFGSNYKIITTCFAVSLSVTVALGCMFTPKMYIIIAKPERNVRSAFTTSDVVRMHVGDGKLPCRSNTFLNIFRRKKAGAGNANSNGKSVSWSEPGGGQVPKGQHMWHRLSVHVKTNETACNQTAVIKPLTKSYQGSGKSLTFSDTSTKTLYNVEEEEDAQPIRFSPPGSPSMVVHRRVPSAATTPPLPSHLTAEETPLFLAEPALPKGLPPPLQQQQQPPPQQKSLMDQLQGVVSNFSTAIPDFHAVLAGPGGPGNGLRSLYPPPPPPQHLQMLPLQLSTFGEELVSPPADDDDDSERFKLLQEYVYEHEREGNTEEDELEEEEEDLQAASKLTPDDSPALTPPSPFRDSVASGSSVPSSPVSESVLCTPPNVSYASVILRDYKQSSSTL

[11] = target: T1, Metabotropic glutamate receptor 2; experiment: Antagonistic activity against mGluR2 was determined; type: functional

With `N[C@H](C(=O)O)[C@@H]1[C@H](C(=O)O)[C@@H]1c1ccccc1` the IC50 [1] was 270 µM, the Ki [2] was 155 µM and the Ki [3] was over 220 µM. It also gave an IC50 [4] of over 300 µM, an EC50 [5] of over 300 µM and a Ki (Glutamate NMDA receptor) of over 200 µM. It also gave an IC50 [6] of over 300 µM.

Molecule `N[C@H](C(=O)O)[C@@H]1[C@@H](C(=O)O)[C@H]1c1ccccc1` has an IC50 [1] of 7 µM, a Ki [2] of 126 µM and a Ki [3] of over 220 µM. It also gave an IC50 [4] of over 300 µM, an EC50 [5] of over 300 µM and a Ki (Glutamate NMDA receptor) of 192 µM. The IC50 [6] was over 300 µM.

Molecule `N[C@H](C(=O)O)[C@H]1[C@@H](C(=O)O)[C@@H]1c1ccccc1` has an IC50 [1] of 213 µM, a Ki [2] of 144 µM and a Ki [3] of 141 µM. For the same molecule, the IC50 [4] was over 300 µM, the EC50 [5] was over 300 µM and the Ki (Glutamate NMDA receptor) was over 200 µM. It also gave an IC50 [6] of over 300 µM.

Work on `N[C@H](C(=O)O)[C@H]1[C@@H](C(=O)O)[C@H]1c1ccccc1` yielded an IC50 [1] of 233 µM, a Ki [2] of over 190 µM and a Ki [3] of over 220 µM. It also gave an IC50 [4] of over 300 µM, an EC50 [5] of over 300 µM and a Ki (Glutamate NMDA receptor) of over 200 µM. For the same molecule, the IC50 [6] was over 300 µM.

With `N[C@H](C(=O)O)[C@H]1[C@H](C(=O)O)[C@@H]1c1ccccc1` the IC50 [1] was 85 µM, the Ki [2] was over 190 µM and the Ki [3] was over 220 µM. It also gave an IC50 [4] of over 300 µM, an EC50 [5] of over 300 µM and a Ki (Glutamate NMDA receptor) of 25 µM. It also gave an IC50 [6] of over 300 µM.

`N[C@H](C(=O)O)[C@H]1[C@H](C(=O)O)[C@H]1c1ccccc1` gave an IC50 [1] of 41 µM, a Ki [2] of 25 µM and a Ki [3] of 124 µM. It also gave an IC50 [4] of over 300 µM, an EC50 [5] of over 300 µM and a Ki (Glutamate NMDA receptor) of 107 µM. The IC50 [7] was over 300 µM.

`N[C@@H](C(=O)O)[C@@H]1[C@@H](C(=O)O)[C@@H]1c1ccccc1` gave an EC50 [8] of over 300 µM, an IC50 [1] of over 300 µM and a Ki [2] of over 190 µM. It also gave a Ki [3] of 212 µM, an IC50 [4] of over 300 µM and a Ki (Glutamate NMDA receptor) of 193 µM. It also gave an IC50 [9] of over 300 µM.

`N[C@@H](C(=O)O)[C@@H]1[C@H](C(=O)O)[C@@H]1c1ccccc1` showed an IC50 [1] of 143 µM, a Ki [2] of 122 µM and a Ki [3] of 251 µM. The IC50 [4] was over 300 µM, the EC50 [5] was over 300 µM and the Ki (Glutamate NMDA receptor) was over 200 µM. It also gave an IC50 [6] of over 300 µM.

For `N[C@@H](C(=O)O)[C@@H]1[C@@H](C(=O)O)[C@H]1c1ccccc1`, the IC50 [1] was 138 µM, the Ki [2] was over 190 µM and the Ki [3] was over 220 µM. For the same molecule, the IC50 [4] was over 300 µM, the EC50 [5] was over 300 µM and the Ki (Glutamate NMDA receptor) was 29 µM. The IC50 [6] was over 300 µM.

Molecule `N[C@@H](C(=O)O)[C@H]1[C@@H](C(=O)O)[C@@H]1c1ccccc1` has an IC50 [1] of 64 µM, a Ki [2] of 155 µM and a Ki [3] of 160 µM. The IC50 [4] was over 300 µM, the EC50 [5] was over 300 µM and the Ki (Glutamate NMDA receptor) was 123 µM. For the same molecule, the IC50 [6] was over 300 µM.

Molecule `N[C@@H](C(=O)O)[C@H]1[C@@H](C(=O)O)[C@H]1c1ccccc1` has an IC50 [1] of 32 µM, a Ki [2] of 117 µM and a Ki [3] of over 220 µM. For the same molecule, the IC50 [4] was over 300 µM, the EC50 [5] was over 300 µM and the Ki (Glutamate NMDA receptor) was over 200 µM. It also gave an IC50 [6] of over 300 µM.

For `N[C@@H](C(=O)O)[C@H]1[C@H](C(=O)O)[C@@H]1c1ccccc1`, the IC50 [1] was 23 µM, the Ki [2] was over 190 µM and the Ki [3] was over 300 µM. The IC50 [4] was over 300 µM, the EC50 [5] was over 300 µM and the Ki (Glutamate NMDA receptor) was over 200 µM. The IC50 [6] was over 300 µM.

In the case of `N[C@@H](C(=O)O)[C@H]1[C@H](C(=O)O)[C@H]1c1ccccc1`, the IC50 [1] is reported as over 300 µM, the Ki [2] is reported as 15 µM and the Ki [3] is reported as 125 µM. It also gave an IC50 [4] of over 300 µM, an EC50 [5] of 122 µM and a Ki (Glutamate NMDA receptor) of 129 µM.

For `CC(N)(C(=O)O)c1ccc(C(=O)O)cc1` (stereo not given), the Ki [10] was 50 µM and the IC50 [11] was 50 µM.

`N[C@H](C(=O)O)[C@@H]1[C@@H](C(=O)O)[C@@H]1c1ccccc1` gave an IC50 [1] of over 300 µM, a Ki [2] of over 190 µM and a Ki [3] of over 220 µM. The IC50 [4] was over 300 µM, the Ki (Glutamate NMDA receptor) was over 200 µM and the IC50 [6] was 8 µM.

With `N[C@@H](C(=O)O)[C@@H]1[C@H](C(=O)O)[C@H]1c1ccccc1` (stereo in doubt; 44) the IC50 [1] was over 300 µM, the Ki [2] was over 190 µM and the Ki [3] was over 220 µM. The IC50 [4] was over 300 µM, the EC50 [5] was over 300 µM and the Ki (Glutamate NMDA receptor) was over 200 µM. It also gave an IC50 [6] of over 300 µM.

With `N[C@@H](C(=O)O)[C@@H]1[C@H](C(=O)O)[C@H]1c1ccccc1` (stereo in doubt; 47) the IC50 [1] was 185 µM, the Ki [2] was 221 µM and the Ki [3] was 285 µM. It also gave an EC50 ([5]; bhk) of over 300 µM and an IC50 ([6]; bhk) of over 300 µM.
